In patent publication US20140163026A1, “8-ETHYL-6-(ARYL)PYRIDO[2,3-D]PYRIMIDIN-7(8H)-ONES FOR THE TREATMENT OF NERVOUS SYSTEM DISORDERS AND CANCER” (Afraxis Holdings, Inc., priority 2011, published 2014) one finds IC50 data, which are given here for 30 compounds.

Usually IC50 stands for the concentration that gives 50% inhibition. A lower IC50 goes with greater potency in that assay.

Where only a bound is given, the exact number is not on record here.

Common to all, as to format: biochemical
One assay has as its target PAK2 (PAK65) (Homo sapiens, UniProt Q13177). Description: In vitro PAK inhibition assay (SelectScreen, Ser/Thr 20 peptide). As for the experimental part:
(§1) Compounds are screened in 1% DMSO (final) in the well. For 10 point titrations, 3-fold serial dilutions are conducted.
(§2) All Peptide/Kinase Mixtures are diluted to a 2× working concentration in the appropriate Kinase Buffer
The 2×PAK2 (PAK65)/Ser/Thr 20 mixture is prepared in 50 mM HEPES pH 7.5, 0.01% BRIJ-35, 10 mM MgCl2, 1 mM EGTA. The final 10 μL Kinase Reaction consists of 0.29-6 ng PAK2 (PAK65) and 2 μM Ser/Thr 20 in 50 mM HEPES pH 7.5, 0.01% BRIJ-35, 10 mM MgCl2, 1 mM EGTA.
(§3) This control yields 100% cleaved peptide in the Development Reaction.
(§4) The 100% Phosphorylation Control, which consists of a synthetically phosphorylated peptide of the same sequence as the peptide substrate, is designed to allow for the calculation of percent phosphorylation.
(§5) This control is designed to produce a 10-50%* phosphorylated peptide in the Kinase Reaction.
(§6) A known inhibitor control standard curve, 10 point titration, is run for each individual kinase on the same plate as the kinase to ensure the kinase is inhibited within an expected IC50 range previously determined.
(§7) Add the following solutions to a well in a 384-well plate: • 2.5 μL of 4× Test Compound OR (100 nL 100× Test Compound plus 2.4 μL kinase buffer) • 5 μL of 2× Peptide/Kinase (PAK) Mixture • 2.5 μL of 4×ATP Solution • 2. Shake the plate for 30-seconds • 3. Incubate the PAK Kinase Reaction at room temperature for 60-minutes • 4. Add 5 μL of Development Reagent Solution to each well • 5. Shake the plate for 30-seconds • 6. Incubate the Development Reaction for 60-minutes • 7. Determine the fluorescence using a fluorescence plate reader • 8. Analyze the fluorescence data
(§8) SelectScreen® Kinase Profiling Service uses XLfit from IDBS.
(§9) The representative IC50 value with a known inhibitor for each kinase was determined at the ATP bin nearest to the ATP Km app.

For another assay, the target named is PAK3 (Homo sapiens, UniProt O75914). The description is as above. As to the method: as §1, §2
The 2×PAK3/Ser/Thr 20 mixture is prepared in 50 mM HEPES pH 7.5, 0.01% BRIJ-35, 10 mM MgCl2, 1 mM EGTA.
as §3, §4, §5, §6, §7, §8, §9

For another assay, the target named is PAK1 (Homo sapiens, UniProt Q13153). Description: In vitro PAK inhibition assay (SelectScreen, Ser/Thr 19 peptide). As for the experimental part: as §1, §2
The 2×PAK1/Ser/Thr 19 mixture is prepared in 50 mM HEPES pH 7.5, 0.01% BRIJ-35, 10 mM MgCl2, 1 mM EGTA.
as §3, §4, §5, §6, §7, §8, §9

A further assay has as its target PAK4 (Homo sapiens, UniProt O96013). Description: In vitro PAK inhibition assay (SelectScreen, Ser/Thr 20 peptide). As to the method: as §1, §2
The 2×PAK4/Ser/Thr 20 mixture is prepared in 50 mM HEPES pH 7.5, 0.01% BRIJ-35, 10 mM MgCl2, 1 mM EGTA. The final 10 μL Kinase Reaction consists of 0.1-0.75 ng PAK4 and 2 μM Ser/Thr 20 in 50 mM HEPES pH 7.5, 0.01% BRIJ-35, 10 mM MgCl2, 1 mM EGTA. After the 1 hour Kinase Reaction incubation, 5 μL of a 1:256 dilution of Development Reagent A is added.
as §3, §4
The minimum Emission Ratio in a screen is established by the 0% Inhibition Control, which contains active kinase. This control is designed to produce a 10-50%* phosphorylated peptide in the Kinase Reaction.
as §6
as §7, with “Bar-coded Corning, low volume NBS, black 384-well plate (Corning Cat. #3676) • 1. Add the” for “Add the”
SelectScreen® Kinase Profiling Service uses XLfit from IDBS. The dose response curve is curve fit to model number 205 (sigmoidal dose-response model).
The table below provides specifications and data around each kinase. The representative IC50 value with a known inhibitor for each kinase was determined at the ATP bin nearest to the ATP Km app.

PAK1, sequence (Q13153 whole entry): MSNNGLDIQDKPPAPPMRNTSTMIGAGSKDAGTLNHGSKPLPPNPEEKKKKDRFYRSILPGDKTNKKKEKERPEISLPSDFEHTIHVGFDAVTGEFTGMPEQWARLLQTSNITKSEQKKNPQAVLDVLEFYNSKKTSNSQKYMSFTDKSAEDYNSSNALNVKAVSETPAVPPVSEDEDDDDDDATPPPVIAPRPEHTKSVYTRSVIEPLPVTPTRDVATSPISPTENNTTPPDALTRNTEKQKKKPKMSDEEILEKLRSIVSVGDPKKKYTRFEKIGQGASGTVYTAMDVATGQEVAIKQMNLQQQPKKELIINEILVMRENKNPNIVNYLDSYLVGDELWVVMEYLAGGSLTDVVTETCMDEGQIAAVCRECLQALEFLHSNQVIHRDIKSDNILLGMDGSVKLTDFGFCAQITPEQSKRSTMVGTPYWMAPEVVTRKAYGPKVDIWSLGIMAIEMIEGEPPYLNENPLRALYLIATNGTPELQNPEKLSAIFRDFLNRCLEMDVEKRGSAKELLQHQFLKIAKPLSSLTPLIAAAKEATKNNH
PAK4, sequence (O96013 whole entry): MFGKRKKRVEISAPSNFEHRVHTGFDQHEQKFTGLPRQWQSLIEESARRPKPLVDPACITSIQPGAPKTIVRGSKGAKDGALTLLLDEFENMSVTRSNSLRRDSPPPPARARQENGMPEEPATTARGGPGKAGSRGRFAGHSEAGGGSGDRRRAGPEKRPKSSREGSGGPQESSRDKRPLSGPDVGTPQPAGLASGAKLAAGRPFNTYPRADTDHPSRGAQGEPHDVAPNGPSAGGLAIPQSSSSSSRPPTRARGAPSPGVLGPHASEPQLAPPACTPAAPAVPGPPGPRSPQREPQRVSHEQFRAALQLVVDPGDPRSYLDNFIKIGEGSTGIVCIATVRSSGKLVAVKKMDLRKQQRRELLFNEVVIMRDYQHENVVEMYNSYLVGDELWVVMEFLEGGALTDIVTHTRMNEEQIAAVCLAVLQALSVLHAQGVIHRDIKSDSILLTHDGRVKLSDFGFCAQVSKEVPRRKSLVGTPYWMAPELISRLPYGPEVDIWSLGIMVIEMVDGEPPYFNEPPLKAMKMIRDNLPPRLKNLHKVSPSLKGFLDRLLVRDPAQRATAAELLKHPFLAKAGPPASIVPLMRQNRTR
PAK3, sequence (O75914 whole entry): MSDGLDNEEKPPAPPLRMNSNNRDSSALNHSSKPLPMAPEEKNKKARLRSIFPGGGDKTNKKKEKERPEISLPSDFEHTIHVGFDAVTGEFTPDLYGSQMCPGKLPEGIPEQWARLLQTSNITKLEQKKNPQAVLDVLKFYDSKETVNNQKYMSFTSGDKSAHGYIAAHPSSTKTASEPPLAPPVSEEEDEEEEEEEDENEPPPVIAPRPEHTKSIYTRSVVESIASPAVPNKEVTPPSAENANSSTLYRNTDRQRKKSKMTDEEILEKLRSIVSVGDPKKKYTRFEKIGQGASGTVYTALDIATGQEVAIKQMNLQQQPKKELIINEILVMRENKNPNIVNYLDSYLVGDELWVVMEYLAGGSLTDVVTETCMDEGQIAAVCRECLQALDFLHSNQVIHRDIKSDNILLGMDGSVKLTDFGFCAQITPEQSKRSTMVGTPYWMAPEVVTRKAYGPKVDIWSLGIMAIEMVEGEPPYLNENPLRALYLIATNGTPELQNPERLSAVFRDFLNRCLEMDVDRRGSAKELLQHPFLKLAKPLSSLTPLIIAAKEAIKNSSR
PAK2 (PAK65), sequence (Q13177 whole entry): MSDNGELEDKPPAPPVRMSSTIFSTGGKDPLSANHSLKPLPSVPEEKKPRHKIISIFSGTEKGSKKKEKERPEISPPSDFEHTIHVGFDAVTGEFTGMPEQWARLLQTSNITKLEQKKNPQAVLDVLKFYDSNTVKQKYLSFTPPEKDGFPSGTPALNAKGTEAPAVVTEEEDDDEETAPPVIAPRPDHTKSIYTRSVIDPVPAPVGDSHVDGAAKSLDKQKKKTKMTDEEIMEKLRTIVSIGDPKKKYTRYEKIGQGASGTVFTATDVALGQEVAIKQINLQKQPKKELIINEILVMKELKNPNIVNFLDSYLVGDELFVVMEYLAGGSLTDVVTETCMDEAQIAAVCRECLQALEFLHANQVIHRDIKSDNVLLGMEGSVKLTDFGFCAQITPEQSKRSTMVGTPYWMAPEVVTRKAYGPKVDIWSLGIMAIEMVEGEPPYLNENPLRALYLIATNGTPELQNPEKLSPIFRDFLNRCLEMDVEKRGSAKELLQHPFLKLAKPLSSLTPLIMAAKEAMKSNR

Turning to `CCn1c(=O)c(-c2ccc(-c3cccs3)cc2Cl)cc2cnc(Nc3ccc(N4CCN(C)CC4)cc3)nc21`, the IC50 was below 50 nM on PAK2 (PAK65), 50 to 500 nM against PAK3, below 50 nM at PAK1 and at least 5000 nM against PAK4.
On to `CCn1c(=O)c(-c2ccc(C3CC3)cc2Cl)cc2cnc(Nc3ccc(N4CCN(C)CC4)cc3)nc21`, for which the IC50 is 50 to 500 nM on PAK2 (PAK65), 50 to 500 nM against PAK3, 50 to 500 nM against PAK1 and at least 5000 nM against PAK4.
Consider `CCn1c(=O)c(-c2ccc(C3CC3)cc2C2CC2)cc2cnc(Nc3ccc(N4CCN(C)CC4)cc3)nc21`, for which the IC50 against PAK2 (PAK65) was 500 to 5000 nM; at PAK3 it was 500 to 5000 nM; against PAK1, 500 to 5000 nM; against PAK4 it was at least 5000 nM.
Take `CCn1c(=O)c(-c2ccc(-c3nccs3)cc2Cl)cc2cnc(Nc3ccc(N4CCN(C)CC4)cc3)nc21`: the IC50 was below 50 nM against PAK2 (PAK65), below 50 nM against PAK3, below 50 nM against PAK1 and 500 to 5000 nM against PAK4.
For the compound `CCn1c(=O)c(-c2ccc(-c3ccncc3)s2)cc2cnc(Nc3ccc(N4CCN(C)CC4)cc3)nc21`, the IC50 was above 5000 nM against PAK2 (PAK65), above 5000 nM against PAK3, above 5000 nM against PAK1 and at least 5000 nM at PAK4.
On to `CCn1c(=O)c(-c2ccc(-c3ccon3)s2)cc2cnc(Nc3ccc(N4CCN(C)CC4)cc3)nc21`, for which the IC50 at PAK2 (PAK65) was above 5000 nM; on PAK3, above 5000 nM; at PAK1, above 5000 nM; against PAK4 it was at least 5000 nM.
On to `CCn1c(=O)c(-c2ccc(-c3cn[nH]c3)cc2Cl)cc2cnc(Nc3ccc(N4CCN(C)CC4)cc3)nc21`, for which the IC50 at PAK2 (PAK65) is 50 to 500 nM; on PAK3, 50 to 500 nM; against PAK1, 50 to 500 nM; at PAK4, at least 5000 nM.
Take `CCn1c(=O)c(-c2ccc(-c3cccnc3)cc2Cl)cc2cnc(Nc3ccc(N4CCNCC4)c(F)c3)nc21`: the IC50 is below 50 nM at PAK2 (PAK65), below 50 nM on PAK3, below 50 nM at PAK1 and 500 to 5000 nM at PAK4.
Turning to `CCOC(=O)c1nc(-c2ccc(-c3cc4cnc(Nc5ccc(N6CCN(C)CC6)cc5)nc4n(CC)c3=O)c(Cl)c2)no1`, the IC50 against PAK2 (PAK65) is 50 to 500 nM; against PAK3, 50 to 500 nM; against PAK1, below 50 nM; on PAK4 it was at least 5000 nM.
Regarding `CCn1c(=O)c(-c2ccc(-c3cncnc3)cc2Cl)cc2cnc(Nc3ccc(N4CCNCC4)c(F)c3)nc21`, the IC50 was below 50 nM against PAK2 (PAK65), below 50 nM at PAK3, below 50 nM against PAK1 and 500 to 5000 nM against PAK4.
Take `CCn1c(=O)c(-c2ccc(-c3cncnc3)cc2Cl)cc2cnc(Nc3ccc(N4CCNCC4)cc3)nc21`: the IC50 on PAK2 (PAK65) was below 50 nM; against PAK3, below 50 nM; at PAK1, below 50 nM; against PAK4, 500 to 5000 nM.
As to `CCn1c(=O)c(-c2ccc(-c3noc(C(F)(F)F)n3)cc2Cl)cc2cnc(Nc3ccc(N4CCN(C)CC4)cc3)nc21`, the IC50 against PAK2 (PAK65) is below 50 nM; against PAK3, 50 to 500 nM; against PAK1, below 50 nM; against PAK4, at least 5000 nM.
As to `CCN1CCN(c2ccc(Nc3ncc4cc(-c5ccc(-c6cncnc6)cc5Cl)c(=O)n(CC)c4n3)cc2F)CC1`, the IC50 against PAK2 (PAK65) was below 50 nM; against PAK3, below 50 nM; against PAK1, below 50 nM; at PAK4 it was 500 to 5000 nM.
For `CCn1c(=O)c(-c2ccc(-c3cccnc3)cc2Cl)cc2cnc(Nc3ccc(N4CCNCC4)cc3)nc21`, the IC50 at PAK2 (PAK65) is below 50 nM; against PAK3, below 50 nM; at PAK1, below 50 nM; against PAK4, 500 to 5000 nM.
Regarding `CCn1c(=O)c(-c2ccc(-c3cccnc3)cc2Cl)cc2cnc(Nc3ccc(N4CCN(C)CC4)c(F)c3)nc21`, the IC50 at PAK2 (PAK65) was below 50 nM; on PAK3, below 50 nM; against PAK1 it was below 50 nM; on PAK4 it was 500 to 5000 nM.
For `CCn1c(=O)c(-c2ccc(-c3cncnc3)cc2Cl)cc2cnc(Nc3ccc(N4CCN(C)CC4)c(F)c3)nc21`, the IC50 against PAK2 (PAK65) is below 50 nM; against PAK3, below 50 nM; at PAK1, below 50 nM; on PAK4 it was at least 5000 nM.
Turning to `CCn1c(=O)c(-c2ccc(-c3cncnc3)cc2Cl)cc2cnc(Nc3ccc(N4CCN(C(C)C)CC4)c(F)c3)nc21`, the IC50 on PAK2 (PAK65) was below 50 nM; on PAK3, below 50 nM; against PAK1 it was below 50 nM; against PAK4, at least 5000 nM.
`CCn1c(=O)c(-c2ccc(-c3cncnc3)cc2Cl)cc2cnc(Nc3ccc(N4CCN(C(C)C)CC4)cc3)nc21`: the IC50 against PAK2 (PAK65) was below 50 nM; against PAK3 it was below 50 nM; against PAK1, below 50 nM; against PAK4 it was 500 to 5000 nM.
On to `CCN1CCN(c2ccc(Nc3ncc4cc(-c5ccc(-c6cccnc6)cc5Cl)c(=O)n(CC)c4n3)cc2)CC1`, for which the IC50 on PAK2 (PAK65) is below 50 nM; on PAK3 it was below 50 nM; against PAK1 it was below 50 nM; at PAK4, 500 to 5000 nM.
For `CCn1c(=O)c(-c2ccc(-c3cncs3)cc2Cl)cc2cnc(Nc3ccc(N4CCNCC4)cc3)nc21`, the IC50 against PAK2 (PAK65) was below 50 nM; on PAK3, below 50 nM; on PAK1, below 50 nM; at PAK4, 500 to 5000 nM.
Turning to `CCn1c(=O)c(-c2ccc(-c3noc(C)n3)cc2Cl)cc2cnc(Nc3ccc(N4CCN(C)CC4)cc3)nc21`, the IC50 is below 50 nM on PAK2 (PAK65), below 50 nM at PAK3, below 50 nM at PAK1 and 500 to 5000 nM against PAK4.
With `CCn1c(=O)c(-c2ccc(-c3cccnc3)cc2Cl)cc2cnc(Nc3ccc(N4CCN(C(C)C)CC4)c(F)c3)nc21`, the IC50 at PAK2 (PAK65) was below 50 nM; against PAK3 it was below 50 nM; against PAK1, below 50 nM; at PAK4, at least 5000 nM.
`CCN1CCN(c2ccc(Nc3ncc4cc(-c5ccc(-c6cncnc6)cc5Cl)c(=O)n(CC)c4n3)cc2)CC1`: the IC50 at PAK2 (PAK65) is below 50 nM; at PAK3, below 50 nM; at PAK1, below 50 nM; against PAK4, 500 to 5000 nM.
With `CCn1c(=O)c(-c2ccc(-c3cncs3)cc2Cl)cc2cnc(Nc3ccc(N4CCNCC4)c(F)c3)nc21`, the IC50 on PAK2 (PAK65) is below 50 nM; against PAK3, below 50 nM; against PAK1 it was below 50 nM; against PAK4, 500 to 5000 nM.
Regarding `CCn1c(=O)c(-c2ccc(-c3cncs3)cc2Cl)cc2cnc(Nc3ccc(N4CCN(C)CC4)c(F)c3)nc21`, the IC50 against PAK2 (PAK65) was below 50 nM; at PAK3 it was below 50 nM; on PAK1, below 50 nM; at PAK4, at least 5000 nM.
Turning to `CCn1c(=O)c(-c2ccc(-c3noc(C)n3)cc2Cl)cc2cnc(Nc3ccc(C4CCNCC4)cc3)nc21`, the IC50 on PAK3 is below 50 nM.
The compound `CCn1c(=O)c(-c2ccc(-c3cnc(C)s3)cc2Cl)cc2cnc(Nc3ccc(C4CCNCC4)cc3)nc21` yielded an IC50 against PAK3 of 50 to 500 nM.
The same measure, in the same setting: with `CCn1c(=O)c(-c2ccc(-c3cccnc3C)cc2Cl)cc2cnc(Nc3ccc(C4CCNCC4)cc3)nc21` the figure was 50 to 500 nM.
Take `CCn1c(=O)c(-c2ccc(-c3ccnc(C)c3)cc2Cl)cc2cnc(Nc3ccc(C4CCNCC4)c(F)c3)nc21`: the IC50 against PAK2 (PAK65) and against PAK1 was 50 to 500 nM throughout.
Take `CCn1c(=O)c(-c2ccc(-c3cccnc3F)cc2Cl)cc2cnc(Nc3ccc(C4CCNCC4)cc3)nc21`: the IC50 against PAK4 was in the range of 500 to 5000 nM.
